According to article PMC6405875 (Scientific Reports, 2019):

What was measured:
WT hDAT [1] = molecular target: T1, WT hDAT (Homo sapiens, UniProt Q01959); assay: [3H]DA uptake in PC12 cells transfected with WT hDAT; assay type: cell-based
T1 construct: expressed in transfected cells; host or cells: rat PC12 cells (ATCC CRL-1721), pcDNA3.1+
Method: (§1) In the current study, we used rat pheochromocytoma cells (PC12 cells, CRL-1721, American Type Culture Collection (ATCC), Manassas, VA), which were maintained in Dulbecco’s modified eagle medium (DMEM, Life Technologies, Carlsbad, CA) supplemented with 15% horse serum, 2.5% bovine calf serum, 2 mM glutamine and antibiotics, 100 U/mL penicillin and 100 µg/mL streptomycin. Cells were cultured at 37 °C in a 5% CO2 incubator. Once cells were growing to 100% confluence on plates, cells were seeded at a density of 1 × 10^5 cells/cm^2 in 24-well plates and transfected with WT hDAT or mutants by Lipofectamine 2000 (Life Technologies). Twenty-four hours after transfection, intact cells or cell suspensions were used for experiments.
(§2) Twenty-four hours after transfection, cells in 24-well plates were washed twice with Krebs-Ringer-HEPES (KRH) buffer (final concentration in mM: 125 NaCl, 5 KCl, 1.5 MgSO4, 1.25 CaCl2, 1.5 KH2PO4, 10 D-glucose, 25 HEPES, 0.1 EDTA, 0.1 pargyline, and 0.1 L-ascorbic acid; pH 7.4) and incubated with nomifensine (10 µM, final concentration) as nonspecific uptake for 10 min at room temperature. […] The reaction was terminated by removal of solution from wells and quickly washed three times with ice cold KRH buffer. Cells were then lysed in 500 μL of 1% SDS for an hour and radioactivity was measured using a liquid scintillation counter (Tri-Carb 2900TR; PerkinElmer Life and Analytical Sciences, Waltham, MA).
(§3) In brief, cells were dissociated with trypsin/EDTA (0.25%/0.1%, 1 mL for one 10 cm dish) and resuspended in culture medium and incubated at room temperature for 10 min. The dissociated cells were collected by centrifugation at 400 × g for 5 min at 4 °C and washed once with phosphate-buffered saline followed by additional 5 min centrifugation (400 × g, 4 °C). Finally, the resulted cell pellets were resuspended in KRH assay buffer. […] The update reaction was terminated by immediate filtration through Whatman GF/B glass filters (presoaked with 1 mM pyrocatechol for 3 h) followed by three washes with 3 mL of ice-cold KRH buffer containing pyrocatechol using a Brandel cell harvester (model M-48; Brandel Inc., Gaithersburg, MD). Radioactivity was determined as described above.

hDAT Y88F/H547A [2] = molecular target: T2, hDAT Y88F/H547A (Homo sapiens, UniProt Q01959, H547A/Y88F); assay: [3H]DA uptake in PC12 cells transfected with Y88F/H547A hDAT; assay type: cell-based
T2 construct: expressed in transfected cells; host or cells: rat PC12 cells (ATCC CRL-1721), pcDNA3.1+
T2 sequence (Q01959 1-620 Y88F/H547A): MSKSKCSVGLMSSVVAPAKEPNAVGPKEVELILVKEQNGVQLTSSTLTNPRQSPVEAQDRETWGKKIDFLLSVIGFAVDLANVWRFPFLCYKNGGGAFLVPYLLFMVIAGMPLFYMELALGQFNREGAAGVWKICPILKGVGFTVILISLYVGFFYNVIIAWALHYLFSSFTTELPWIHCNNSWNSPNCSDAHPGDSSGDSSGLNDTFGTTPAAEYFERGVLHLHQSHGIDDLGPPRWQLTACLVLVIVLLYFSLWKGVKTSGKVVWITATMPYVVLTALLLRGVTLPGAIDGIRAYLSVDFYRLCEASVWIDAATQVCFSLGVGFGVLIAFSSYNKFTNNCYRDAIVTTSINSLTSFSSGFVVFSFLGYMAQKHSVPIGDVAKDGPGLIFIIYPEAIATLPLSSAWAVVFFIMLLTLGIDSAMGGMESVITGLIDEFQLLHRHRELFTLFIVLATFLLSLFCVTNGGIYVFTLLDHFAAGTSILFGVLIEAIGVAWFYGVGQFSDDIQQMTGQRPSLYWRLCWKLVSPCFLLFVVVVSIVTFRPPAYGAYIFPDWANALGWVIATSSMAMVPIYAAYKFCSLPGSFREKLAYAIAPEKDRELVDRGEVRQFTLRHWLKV
Method: as §1, §2, §3

WT hDAT [3] = molecular target: T1, WT hDAT; assay: AMPH-stimulated [3H]DA efflux, WT hDAT; assay type: cell-based; details: AMPH 5–250 µM, fractional release of cellular [3H]DA
Method: as §1

hDAT Y88F = molecular target: T3, hDAT Y88F (Homo sapiens, UniProt Q01959, Y88F); assay: AMPH-stimulated [3H]DA efflux, Y88F hDAT; assay type: cell-based; details: AMPH 5–250 µM, fractional release of cellular [3H]DA
T3 construct: expressed in transfected cells; host or cells: rat PC12 cells (ATCC CRL-1721), pcDNA3.1+
T3 sequence (Q01959 1-620 Y88F): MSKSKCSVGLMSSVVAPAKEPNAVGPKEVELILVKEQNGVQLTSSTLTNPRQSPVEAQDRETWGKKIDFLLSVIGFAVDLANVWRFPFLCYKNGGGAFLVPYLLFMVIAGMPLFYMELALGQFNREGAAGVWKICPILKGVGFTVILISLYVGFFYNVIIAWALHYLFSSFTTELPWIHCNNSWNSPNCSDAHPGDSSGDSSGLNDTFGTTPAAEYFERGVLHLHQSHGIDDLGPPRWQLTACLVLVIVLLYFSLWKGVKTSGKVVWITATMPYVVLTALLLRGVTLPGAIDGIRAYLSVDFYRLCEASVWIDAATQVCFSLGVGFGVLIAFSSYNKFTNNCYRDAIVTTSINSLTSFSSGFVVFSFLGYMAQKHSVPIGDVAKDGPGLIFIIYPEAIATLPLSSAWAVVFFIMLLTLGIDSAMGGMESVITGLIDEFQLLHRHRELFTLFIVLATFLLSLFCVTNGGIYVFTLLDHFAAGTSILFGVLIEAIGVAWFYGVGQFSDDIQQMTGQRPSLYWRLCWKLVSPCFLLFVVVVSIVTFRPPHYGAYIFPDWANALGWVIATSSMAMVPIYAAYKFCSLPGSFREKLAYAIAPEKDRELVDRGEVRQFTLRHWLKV
Method: as §1

hDAT Y88A = molecular target: T4, hDAT Y88A (Homo sapiens, UniProt Q01959, Y88A); assay: AMPH-stimulated [3H]DA efflux, Y88A hDAT; assay type: cell-based; details: AMPH 5–250 µM, fractional release of cellular [3H]DA
T4 construct: expressed in transfected cells; host or cells: rat PC12 cells (ATCC CRL-1721)
T4 sequence (Q01959 1-620 Y88A): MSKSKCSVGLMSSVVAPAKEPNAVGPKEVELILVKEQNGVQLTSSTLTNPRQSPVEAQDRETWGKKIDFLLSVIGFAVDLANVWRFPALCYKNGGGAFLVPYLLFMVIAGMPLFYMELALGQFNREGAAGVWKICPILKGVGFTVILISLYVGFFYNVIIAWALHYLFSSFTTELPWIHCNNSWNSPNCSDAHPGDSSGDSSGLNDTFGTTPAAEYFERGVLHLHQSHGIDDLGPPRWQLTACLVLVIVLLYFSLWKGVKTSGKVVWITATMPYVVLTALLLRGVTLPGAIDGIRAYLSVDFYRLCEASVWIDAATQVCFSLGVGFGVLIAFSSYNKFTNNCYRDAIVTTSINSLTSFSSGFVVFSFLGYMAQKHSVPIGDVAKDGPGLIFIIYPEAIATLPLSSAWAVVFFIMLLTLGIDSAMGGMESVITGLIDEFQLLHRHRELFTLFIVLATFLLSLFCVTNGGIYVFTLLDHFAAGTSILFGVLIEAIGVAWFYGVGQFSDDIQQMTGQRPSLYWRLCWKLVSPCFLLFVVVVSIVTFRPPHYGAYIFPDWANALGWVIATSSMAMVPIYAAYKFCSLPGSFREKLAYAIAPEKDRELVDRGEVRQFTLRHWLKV
Method: as §1

hDAT H547A [4] = molecular target: T5, hDAT H547A (Homo sapiens, UniProt Q01959, H547A); assay: AMPH-stimulated [3H]DA efflux, H547A hDAT; assay type: cell-based; details: AMPH 5–250 µM, fractional release of cellular [3H]DA
T5 construct: expressed in transfected cells; host or cells: rat PC12 cells (ATCC CRL-1721), pcDNA3.1+
Method: as §1

hDAT Y88F/H547A [5] = molecular target: T2, hDAT Y88F/H547A; assay: AMPH-stimulated [3H]DA efflux, Y88F/H547A hDAT; assay type: cell-based; parameters: unit not given here; details: AMPH 5–250 µM, fractional release of cellular [3H]DA
WT hDAT [6] = molecular target: T1, WT hDAT; details: 1 µM PMA; cited from earlier work
hDAT H547A [7] = molecular target: T5, hDAT H547A; details: 1 µM PMA; H547A mutant; cited from earlier work
WT hDAT [8] = molecular target: T1, WT hDAT; assay: [3H]WIN 35,428 binding in intact PC12 cells transfected with WT hDAT
hDAT Y88F/H547A [9] = molecular target: T2, hDAT Y88F/H547A; assay: [3H]WIN 35,428 binding in intact PC12 cells transfected with Y88F/H547A hDAT; details: Zn2+ 10 and 100 µM
hDAT Y88F/K92M/H547A = molecular target: T6, hDAT Y88F/K92M/H547A (Homo sapiens, UniProt Q01959, H547A/K92M/Y88F)
T6 sequence (Q01959 1-620 Y88F/K92M/H547A): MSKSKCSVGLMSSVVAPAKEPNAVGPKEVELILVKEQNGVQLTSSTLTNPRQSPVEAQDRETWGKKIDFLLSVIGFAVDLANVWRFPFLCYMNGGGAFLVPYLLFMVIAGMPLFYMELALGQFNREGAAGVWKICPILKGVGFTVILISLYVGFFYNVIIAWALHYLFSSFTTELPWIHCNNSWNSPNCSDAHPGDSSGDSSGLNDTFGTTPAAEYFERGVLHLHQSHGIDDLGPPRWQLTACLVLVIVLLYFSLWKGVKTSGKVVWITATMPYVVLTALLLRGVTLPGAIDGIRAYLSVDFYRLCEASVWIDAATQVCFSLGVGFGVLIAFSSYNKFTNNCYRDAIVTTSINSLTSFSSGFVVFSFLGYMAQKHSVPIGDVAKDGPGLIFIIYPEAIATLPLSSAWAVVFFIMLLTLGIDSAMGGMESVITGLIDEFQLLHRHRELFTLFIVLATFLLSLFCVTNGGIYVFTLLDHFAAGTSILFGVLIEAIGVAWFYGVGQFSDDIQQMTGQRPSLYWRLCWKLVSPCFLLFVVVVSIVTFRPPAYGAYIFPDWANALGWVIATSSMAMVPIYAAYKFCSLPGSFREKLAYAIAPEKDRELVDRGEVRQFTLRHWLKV
Method: as §1
Twenty-four hours after transfection, cells in 24-well plates were washed twice with Krebs-Ringer-HEPES (KRH) buffer (final concentration in mM: 125 NaCl, 5 KCl, 1.5 MgSO4, 1.25 CaCl2, 1.5 KH2PO4, 10 D-glucose, 25 HEPES, 0.1 EDTA, 0.1 pargyline, and 0.1 L-ascorbic acid; pH 7.4) and incubated with nomifensine (10 µM, final concentration) as nonspecific uptake for 10 min at room temperature. […] Cells were then lysed in 500 μL of 1% SDS for an hour and radioactivity was measured using a liquid scintillation counter (Tri-Carb 2900TR; PerkinElmer Life and Analytical Sciences, Waltham, MA).

[10] = substrate: NCCc1ccc(O)c(O)c1; assay: cells, lysate or membranes; details: other: PC12 cells, Y88F/H547A; pH 7.4; 37.0 °C

T1 sequence (Q01959 whole entry): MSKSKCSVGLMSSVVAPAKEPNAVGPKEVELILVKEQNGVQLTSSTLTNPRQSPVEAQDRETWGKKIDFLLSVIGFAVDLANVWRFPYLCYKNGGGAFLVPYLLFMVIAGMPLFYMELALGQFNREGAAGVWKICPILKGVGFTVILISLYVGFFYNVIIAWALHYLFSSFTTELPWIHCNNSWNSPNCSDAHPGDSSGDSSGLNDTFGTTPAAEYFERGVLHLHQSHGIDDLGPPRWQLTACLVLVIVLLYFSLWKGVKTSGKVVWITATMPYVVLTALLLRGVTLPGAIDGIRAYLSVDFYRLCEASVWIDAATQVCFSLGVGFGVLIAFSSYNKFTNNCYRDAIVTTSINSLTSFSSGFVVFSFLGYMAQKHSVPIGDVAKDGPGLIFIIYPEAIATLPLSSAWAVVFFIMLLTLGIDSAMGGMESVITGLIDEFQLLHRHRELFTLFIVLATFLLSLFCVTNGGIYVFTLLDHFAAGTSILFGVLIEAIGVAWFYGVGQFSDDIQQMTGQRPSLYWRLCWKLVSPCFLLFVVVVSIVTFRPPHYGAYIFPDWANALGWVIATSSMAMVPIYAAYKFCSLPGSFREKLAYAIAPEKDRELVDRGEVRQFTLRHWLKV
T5 sequence (Q01959 whole entry H547A): as the sequence (Q01959 whole entry) above, with H547A counted along it

rTat1–86: recombinant HIV-1 transactivator of transcription protein, residues 1–86 (Diatheva)
Reduction of specific [3H]DA uptake relative to control (WT hDAT [1]; 140 nM rTat1–86, 20 min preincubation, WT hDAT): 31% | Tat-induced reduction of [3H]DA uptake relative to control (hDAT Y88F/H547A [2]; 140 nM rTat1–86, 20 min preincubation, Y88F/H547A, p > 0.05 vs control): attenuated

CC(N)Cc1ccccc1 (centres unmarked) [AMPH, amphetamine]
AMPH-induced decrease of Vmax of [3H]DA uptake vs control (WT hDAT [1]; AMPH 1 µM, WT hDAT): 32% | Vmax of [3H]DA uptake in presence of AMPH (WT hDAT [1]; AMPH 1 µM, WT hDAT): 7.80 ± 0.97 pmol/min/10^5 cells | AMPH-induced decrease of Vmax of [3H]DA uptake vs control (hDAT Y88F/H547A [2]; AMPH 1 µM, Y88F/H547A): 42% | Vmax of [3H]DA uptake in presence of AMPH (hDAT Y88F/H547A [2]; AMPH 1 µM, Y88F/H547A): 10.9 ± 1.33 pmol/min/10^5 cells | Vmax of AMPH-stimulated [3H]DA efflux (WT hDAT [3]): 0.42 ± 0.03 | Vmax of AMPH-stimulated [3H]DA efflux (hDAT Y88F): 0.28 ± 0.06 | Vmax of AMPH-stimulated [3H]DA efflux (hDAT Y88A): 0.29 ± 0.01 | Vmax of AMPH-stimulated [3H]DA efflux (hDAT H547A [4]): 0.22 ± 0.04 | Vmax of AMPH-stimulated [3H]DA efflux (hDAT Y88F/H547A [5]): 0.20 ± 0.03

CCCCCCCCCCCCCC(=O)O[C@@H]1[C@@H](C)[C@@]2(O)[C@@H](C=C(CO)C[C@]3(O)C(=O)C(C)=C[C@@H]23)[C@@H]2C(C)(C)[C@]12OC(C)=O [PMA, phorbol 12-myristate 13-acetate]
Reduction of Km of [3H]DA uptake vs control (WT hDAT [1]): 53% | Reduction of Vmax of [3H]DA uptake vs vehicle control (WT hDAT [1]): 51% | Reduction of Km of [3H]DA uptake vs control (hDAT Y88F/H547A [2]): 63% | Reduction of Vmax of [3H]DA uptake vs vehicle control (hDAT Y88F/H547A [2]): 60% | Decrease in Vmax of DA uptake vs control (WT hDAT [6]): 40% | Decrease in Vmax of DA uptake vs control (hDAT H547A [7]): 60%

[Cl-].[Cl-].[Zn+2] [Zn^2+, ZnCl2]
Reduction of [3H]DA uptake vs control (absence of Zn2+) (WT hDAT [1]; Zn2+ 10 µM, WT hDAT): ~ 40% | Reduction of [3H]DA uptake vs control (absence of Zn2+) (WT hDAT [1]; Zn2+ 100 µM, WT hDAT): ~ 40% | Reduction of [3H]DA uptake vs control (absence of Zn2+) (hDAT Y88F/H547A [2]; Zn2+ 10 µM, Y88F/H547A): 60% | Reduction of [3H]DA uptake vs control (absence of Zn2+) (hDAT Y88F/H547A [2]; Zn2+ 100 µM, Y88F/H547A): 71% | Increase of [3H]WIN35,428 binding vs control (absence of Zn2+) (WT hDAT [8]; Zn2+ 10 µM): 49% | Increase of [3H]WIN35,428 binding vs control (absence of Zn2+) (WT hDAT [8]; Zn2+ 100 µM): 69% | Zn2+-induced increase in [3H]WIN 35,428 binding compared with WT hDAT (hDAT Y88F/H547A [9]): significantly diminished

NCCc1ccc(O)c(O)c1 [DA, Dopamine]
Vmax of [3H]DA uptake (WT hDAT [1]; AMPH experiment, in the absence of AMPH, WT hDAT): 11.5 ± 0.94 pmol/min/10^5 cells | Km (WT hDAT [1]; PC12 cells, WT hDAT): 1.21 ± 0.17 µM | Vmax of [3H]DA uptake (WT hDAT [1]; PC12 cells, WT hDAT): 12.52 ± 0.68 pmol/min/10^5 cells | Vmax of [3H]DA uptake (hDAT Y88F/H547A [2]; AMPH experiment, in the absence of AMPH, Y88F/H547A): 18.9 ± 2.81 pmol/min/10^5 cells | Vmax of [3H]DA uptake (hDAT Y88F/H547A [2]; PC12 cells, Y88F/H547A): 24.06 ± 4.32 pmol/min/10^5 cells | Vmax of [3H]DA uptake (hDAT Y88F/K92M/H547A; PC12 cells): 0.5 ± 0.31 pmol/min/10^5 cells | Km (hDAT Y88F/K92M/H547A; read-out: Km of [3H]DA uptake, PC12 cells): 1.89 ± 1.25 µM

B1: hDAT Y88F/H547A (Homo sapiens; H547A/Y88F) (protein)
chain: MSKSKCSVGLMSSVVAPAKEPNAVGPKEVELILVKEQNGVQLTSSTLTNPRQSPVEAQDRETWGKKIDFLLSVIGFAVDLANVWRFPFLCYKNGGGAFLVPYLLFMVIAGMPLFYMELALGQFNREGAAGVWKICPILKGVGFTVILISLYVGFFYNVIIAWALHYLFSSFTTELPWIHCNNSWNSPNCSDAHPGDSSGDSSGLNDTFGTTPAAEYFERGVLHLHQSHGIDDLGPPRWQLTACLVLVIVLLYFSLWKGVKTSGKVVWITATMPYVVLTALLLRGVTLPGAIDGIRAYLSVDFYRLCEASVWIDAATQVCFSLGVGFGVLIAFSSYNKFTNNCYRDAIVTTSINSLTSFSSGFVVFSFLGYMAQKHSVPIGDVAKDGPGLIFIIYPEAIATLPLSSAWAVVFFIMLLTLGIDSAMGGMESVITGLIDEFQLLHRHRELFTLFIVLATFLLSLFCVTNGGIYVFTLLDHFAAGTSILFGVLIEAIGVAWFYGVGQFSDDIQQMTGQRPSLYWRLCWKLVSPCFLLFVVVVSIVTFRPPAYGAYIFPDWANALGWVIATSSMAMVPIYAAYKFCSLPGSFREKLAYAIAPEKDRELVDRGEVRQFTLRHWLKV
Km [10]: 4.25 ± 1.05 µM
